# In patent US6919314B1, “Bioactive whey protein hydrolysate” (New Zealand Dairy Board, priority 1998, dated 2005):
# Marks after values point to notes of the source that are not given here. Ends that are not written are not given here. Peptide text beside a SMILES is read from it.
# Target: T1, rabbit lung ACE (Oryctolagus cuniculus, UniProt P12822)
# T1 construct: reagents from Sigma product 305-10) consisting of rabbit lung ACE; purchased Sigma Chemical Corporation, St Louis, Mo., USA 305-10; host or cells: rabbit lung (tissue-derived enzyme)
# T1 sequence (P12822 34-1310): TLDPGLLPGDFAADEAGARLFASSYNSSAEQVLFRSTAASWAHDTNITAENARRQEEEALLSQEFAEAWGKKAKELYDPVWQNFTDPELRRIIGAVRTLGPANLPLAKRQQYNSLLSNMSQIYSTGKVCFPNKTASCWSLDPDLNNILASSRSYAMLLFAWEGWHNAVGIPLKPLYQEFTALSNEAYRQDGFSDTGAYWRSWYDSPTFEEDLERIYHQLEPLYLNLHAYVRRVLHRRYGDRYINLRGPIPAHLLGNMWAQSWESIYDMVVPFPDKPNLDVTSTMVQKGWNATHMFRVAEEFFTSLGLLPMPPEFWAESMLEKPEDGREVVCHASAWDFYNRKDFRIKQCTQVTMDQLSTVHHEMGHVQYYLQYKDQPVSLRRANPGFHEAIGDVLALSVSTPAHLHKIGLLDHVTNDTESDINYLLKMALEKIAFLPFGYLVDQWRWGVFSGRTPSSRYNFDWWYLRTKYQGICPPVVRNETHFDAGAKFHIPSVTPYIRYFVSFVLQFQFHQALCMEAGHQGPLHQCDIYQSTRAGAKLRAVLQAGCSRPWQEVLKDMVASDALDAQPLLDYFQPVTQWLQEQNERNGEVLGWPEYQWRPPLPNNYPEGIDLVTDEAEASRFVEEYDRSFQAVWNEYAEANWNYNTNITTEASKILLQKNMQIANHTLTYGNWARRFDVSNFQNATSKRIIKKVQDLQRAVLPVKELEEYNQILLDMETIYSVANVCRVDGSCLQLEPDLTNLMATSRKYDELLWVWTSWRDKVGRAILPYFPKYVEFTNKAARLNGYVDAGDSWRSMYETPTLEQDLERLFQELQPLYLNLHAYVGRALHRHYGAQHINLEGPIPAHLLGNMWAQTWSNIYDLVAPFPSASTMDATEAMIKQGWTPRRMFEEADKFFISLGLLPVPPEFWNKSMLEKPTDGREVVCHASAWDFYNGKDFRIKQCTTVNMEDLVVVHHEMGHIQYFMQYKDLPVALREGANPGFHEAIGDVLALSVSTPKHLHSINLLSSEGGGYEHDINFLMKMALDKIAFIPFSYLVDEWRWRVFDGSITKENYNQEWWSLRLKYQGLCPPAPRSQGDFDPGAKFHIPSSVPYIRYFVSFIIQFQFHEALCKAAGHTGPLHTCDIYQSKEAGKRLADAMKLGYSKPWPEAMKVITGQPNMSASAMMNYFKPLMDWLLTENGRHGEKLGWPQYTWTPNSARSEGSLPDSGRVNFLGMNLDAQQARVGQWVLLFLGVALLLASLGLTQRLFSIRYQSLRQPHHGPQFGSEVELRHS
# Assay: ACE-I activity using FAPGG as substrate (method of Cushman & Cheung)
# Type: biochemical
# Details: colorimetric substrate FAPGG; activity measured with that of another peptide of unknown origin
# Method: A pH of 7.0 and an enzyme substrate ratio of 0.3% w/w was used for the hydrolysis. The hydrolysate was adjusted to pH 5.0 and heated at 65° C. for 30 min to inactivate the enzyme. […] ACE-I activities are expressed as the amount of material (g/L) needed to reduce the activity of the ACE-I enzyme by 50%.
# Each fraction was lyophilised and the amount of peptide material present was measured gravimetrically. […] If a peptide inhibits ACE, the change in absorbance at 340 nm is reduced. […] The eluate was collected using the fraction collector set to collect 0.5 min fractions.
# Samples from each fraction were analysed using an analytical reverse-phase HPLC column, and those fractions containing a single, identical peptide were pooled. Each pooled fraction was lyophilised and the weight of the peptide present was determined gravimetrically. The purified peptides were assayed for ACE-I activity as before and the IC50 was calculated for […] individual peptide.
row,Activity (IC50 in mg L^−1),Compound
1,17^h mg L^−1,"Leu-Phe-Arg-Glu (LFRE; not fully specified; printed: Leu-Phe-Arg-Glu) [LFRQ, origin αs1-CN(136-139)]"

# Same assay, conditions: purified peptide; colorimetric substrate FAPGG; read-out: Activity (IC50 in mg L^−1) (converted)
row,Compound,IC50
1,"CC(C)C[C@H](N)C(=O)N[C@@H](Cc1ccccc1)C(=O)N[C@@H](CO)C(=O)N[C@@H](Cc1c[nH]cn1)C(=O)O [LFSH, Leu-Phe-Ser-His] (H-LFSH-OH; N-terminus and C-terminus assumed)",59.7 µM
2,"ALPMH [ALPMH, Ala-Leu-Pro-Met-His]",21.1 µM
3,"ILKEKH [ILKEKH, Ile-Leu-Lys-Glu-Lys-His]",26.1 µM
4,"LDIQK [LDIQK, Leu-Asp-Ile-Gln-Lys]",27.6 µM
5,"LHLPLP [LHLPLP, Leu-His-Leu-Pro-Leu-Pro]",10.2 µM

# More lines, now with the values ahead:
row,IC50,Compound
1,71.8 µM,"CSCC[C@H](N)C(=O)N[C@@H](CCCCN)C(=O)NCC(=O)O [MKG, Met-Lys-Gly] (H-Met-Lys-Gly-OH; N-terminus and C-terminus assumed)"
2,29.7 µM,"LIVTQ [LIVTQ, Leu-Ile-Val-Thr-Gln]"
3,9.22 µM,LVYPFPGPIPNSLPQNIPP
4,52 µM,"VTSTAV [VTSTAV, Val-Thr-Ser-Thr-Ala-Val]"

# System: spontaneously hypertensive rats (SHR/N)
# Assay: In vivo blood pressure in spontaneously hypertensive rats (tail cuff)
# Design: species or system rat
# Details: 30 mg/Kg bodyweight/day for 8 weeks, compared with the hydrolysate
# Excerpt: The rat strain has been specifically selected for their development of high blood pressure on maturing, and is used extensively to monitor the effect of blood pressure lowering agents.
# Eight week old rats were individually housed in plastic rat cages and kept in temperature controlled facilities throughout the trial. They had unlimited access to water and were fed commercial rat chow ad libitum. The test products were given orally as a single daily dose for 8 weeks during which time changes in blood pressure were monitored.
row,Compound,systolic blood pressure
1,C[C@H](CS)C(=O)N1CCC[C@H]1C(=O)O [captopril],effect of the hydrolysate was not as great as that of captopril
